Experimental data reported in patent US20140141137A1, “Encapsulated Antimicrobial Material” (Danisco A/S, priority 2012, published 2014).

Key:
[1] = tested on: yeast; experiment: Leavening of bread dough containing natamycin; type: cell-based; details: 12 ppm on flour weight; about 50 minutes, 85% relative humidity, 40° C.
Protocol: (§1) A bread is made by preparing a dough containing flour, water, yeast, salt and a dough conditioner. Included in the dough mix is either natamycin or encapsulated natamycin or neither. […] All ingredients are mixed together thoroughly for between 3 and 10 minutes.
The dough is then given a short resting period after mixing (approx. 5 to 10 minutes) followed by scaling at the required weight. A second rest period is then applied following a second moulding in shape the dough as desired. The dough is then placed into a tin or tray. A leavening period for about 50 minutes at 85% relative humidity at 40° C. then follows.

[2] = tested on: moulds; experiment: Mould spoilage of sliced bread over shelf life; type: cell-based; details: 12 ppm on flour weight; normal shelf life period
Protocol: as §1
When the bread is cool, the natamycin content in the bread is assayed. The natamycin content from bread containing encapsulated natamycin is higher than that in the bread containing unencapsulated natamycin, indicating the heat protective benefit of encapsulated natamycin. The bread is then sliced and observed over the normal shelf life period for growth of moulds.

[3] = tested on: common food spoilage yeasts and moulds; details: cited from earlier work
[4] = reportedly; or more; cited from earlier work
[5] = Davies et al. 1998; cited from earlier work

Compound | Leavening of bread dough [1] | Mould spoilage / extension of shelf life of sliced bread [2] | Concentrations inhibiting most strains [3] | Effective levels to preserve foodstuffs [4] | pH of optimum stability [5]
C[C@@H]1C/C=C/C=C/C=C/C=C/[C@H](O[C@@H]2O[C@H](C)[C@@H](O)[C@H](N)[C@@H]2O)C[C@@H]2O[C@](O)(C[C@@H](O)C[C@H]3O[C@@H]3/C=C/C(=O)O1)C[C@H](O)[C@H]2C(=O)O [natamycin] | poor leavening | Delay of mould spoilage is observed | 1-15 ppm |  | 
nisin (ITSISLCTPGCKTGALMGCNMKTATCHCSIHVSK; Lantibiotic nisin-A; UniProt P13068 24-57, looked up) [polypeptide bacteriocin produced by the lactic acid bacteria, Lactococcus lactis subsp. lactis] |  |  |  | 25-500 IU/g | 3
